Experimental data: US11596644B2, “Method for treating post-prandial hypoglycemia” (AVOLYNT, priority 2018, dated 2023)

Experiments:
human SGLT1 = target: T1, human SGLT1 (Homo sapiens, UniProt P13866); assay: Inhibition of radiolabeled α-MG uptake into COS-7 cells transfected with human SGLT1 (Dixon plot); type: cell-based
T1 construct: expressed in transfected cells; host or cells: COS-7
T1 sequence (P13866 1-664): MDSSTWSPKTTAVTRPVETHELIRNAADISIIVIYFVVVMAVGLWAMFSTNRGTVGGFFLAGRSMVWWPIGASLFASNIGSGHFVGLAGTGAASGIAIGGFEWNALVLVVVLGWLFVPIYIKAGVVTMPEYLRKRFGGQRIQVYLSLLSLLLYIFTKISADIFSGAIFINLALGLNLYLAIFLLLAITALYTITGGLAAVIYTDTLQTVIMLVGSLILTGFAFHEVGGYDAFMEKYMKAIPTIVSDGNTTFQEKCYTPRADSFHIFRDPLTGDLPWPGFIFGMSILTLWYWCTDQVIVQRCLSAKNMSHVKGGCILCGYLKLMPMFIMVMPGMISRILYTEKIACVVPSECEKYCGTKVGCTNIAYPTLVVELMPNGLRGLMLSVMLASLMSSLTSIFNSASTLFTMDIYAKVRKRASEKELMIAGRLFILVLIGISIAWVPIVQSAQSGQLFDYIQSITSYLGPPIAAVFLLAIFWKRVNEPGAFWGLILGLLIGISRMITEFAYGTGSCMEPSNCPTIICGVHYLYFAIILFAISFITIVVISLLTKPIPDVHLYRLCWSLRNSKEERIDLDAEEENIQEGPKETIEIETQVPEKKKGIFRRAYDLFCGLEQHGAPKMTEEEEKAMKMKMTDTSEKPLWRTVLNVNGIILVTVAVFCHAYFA
Experimental: (§1) Selective inhibition study. Inhibition constants (Ki) of mizagliflozin for rat and human SGLT1 and SGLT2 were determined measuring concentration-dependent effects of test compound on uptake of radiolabeled methyl-α-D-glucopyranoside (α-MG) into COS-7 cells transiently transfected with cloned SGLT1 or SGLT2. Mizagliflozin was assessed at concentrations from 1 to 30 μM and 3 to 100 μM for human and rat SGLT2, respectively. It was assessed at concentrations from 30 nM to 1 μM and 10 to 30 nM for human and rat SGLT1, respectively. α-MG test concentrations were 0.3 and 1 mM. Data were analyzed and Ki determined using Dixon plots of initial transport rates. […] Inhibition constants were also determined for human SGLT1 and SGLT2.

human SGLT2 = target: T2, human SGLT2 (Homo sapiens, UniProt P31639); assay: Inhibition of radiolabeled α-MG uptake into COS-7 cells transfected with human SGLT2 (Dixon plot); type: cell-based; settings: α-MG 0.3 and 1 mM, read-out: inhibition constant for human SGLT2
T2 construct: expressed in transfected cells; host or cells: COS-7
T2 sequence (P31639 1-672): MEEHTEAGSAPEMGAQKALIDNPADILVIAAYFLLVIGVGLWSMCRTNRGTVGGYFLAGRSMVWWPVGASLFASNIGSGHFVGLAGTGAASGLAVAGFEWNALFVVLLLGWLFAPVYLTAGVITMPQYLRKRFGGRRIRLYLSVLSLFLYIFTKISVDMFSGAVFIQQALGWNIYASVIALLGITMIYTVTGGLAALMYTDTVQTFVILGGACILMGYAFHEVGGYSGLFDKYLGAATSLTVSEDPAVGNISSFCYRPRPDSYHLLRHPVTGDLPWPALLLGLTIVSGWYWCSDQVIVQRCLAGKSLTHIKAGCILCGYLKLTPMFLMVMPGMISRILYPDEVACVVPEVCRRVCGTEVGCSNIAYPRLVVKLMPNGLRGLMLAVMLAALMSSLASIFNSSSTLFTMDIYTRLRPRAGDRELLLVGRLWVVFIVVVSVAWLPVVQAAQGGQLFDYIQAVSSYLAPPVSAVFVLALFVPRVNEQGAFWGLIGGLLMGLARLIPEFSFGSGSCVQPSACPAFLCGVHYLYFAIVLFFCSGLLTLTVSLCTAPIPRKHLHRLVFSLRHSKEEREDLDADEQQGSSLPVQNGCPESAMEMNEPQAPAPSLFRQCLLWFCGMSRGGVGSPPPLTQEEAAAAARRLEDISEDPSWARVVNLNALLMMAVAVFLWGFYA
Experimental: as §1

[1] = tested on: normal Sprague Dawley rats; assay: Mixed carbohydrate tolerance test in normal rats; type: in vivo, rat
Experimental: Study on normal rats. The efficacy of mizagliflozin (decreasing plasma glucose levels) in normal Sprague Dawley rats was determined in a mixed carbohydrate tolerance test. Normal rats were fasted for 16 hours and then given an oral loading dose of 2.0 g/kg of mixed carbohydrate (soluble starch:sucrose:lactose monohydrate=6:3:1). Mizagliflozin (KGA-3235 sebacate), or water as the vehicle control, was then administered as a single oral dose to groups of male rats (n=8/group) at doses of 0.03, 0.1, 0.3, and 1 mg/kg. Voglibose, a glucosidase inhibitor similar to acarbose, was used as a positive control and was administered as a single oral dose to male rats (n=8/group) at dose levels of 0.1, 0.3 and 1 mg/kg. Blood samples were collected just prior to loading with mixed carbohydrate and at 0.5, 1, 2, 3, 4, and 6 hours after loading.

[2] = tested on: STZ-induced diabetic rats; assay: Mixed carbohydrate tolerance test in STZ-induced diabetic rats (Example 3); type: in vivo, rat
Experimental: Study in diabetic rats. Mizagliflozin was tested in a rat model for diabetes and efficacy, as measured by a relative decrease in plasma glucose, was determined using a mixed carbohydrate tolerance test. Diabetic model rats were prepared by intravenous administration of streptozotocin (STZ) to induce diabetes. Seven days after STZ administration, rats were fasted for 16 hours and then given an oral loading dose of 2.0 g/kg of mixed carbohydrate (soluble starch:sucrose:lactose monohydrate=6:3:1). Mizagliflozin, or water as the vehicle control, was then administered as a single oral dose to groups of male rats (n=8/group) at doses of 0.01, 0.03, 0.1, and 0.3 mg/kg. Another control group was given vehicle and consisted of normal male Sprague Dawley rats that were not administered STZ. Voglibose was also administered as a single oral dose to male rats (n=8/group) at dose levels of 0.03, 0.1 and 0.3 mg/kg. Blood samples were collected just prior to loading with mixed carbohydrate and at 0.5, 1, 2, 3, 4, and 6 hours after loading. Plasma glucose concentrations were determined and ΔAUC0-1 h for plasma glucose was calculated.

[3] = Oral pharmacokinetics and excretion in rats; type: in vivo, rat
Source text: Accordingly, the SGLT1 inhibitor compounds of Formula I or Formula II are locally acting in the gut, and have poor systemic exposure. […] Systemic exposure (e.g., Cmax) can be measured by methods well known in the art, including liquid chromatography mass spectrometry.

[4] = Rattus norvegicus, read-out: ED50 calculated from mean ΔAUC0-1 h (% of control), mixed carbohydrate 2.0 g/kg, single oral dose

For `Cc1cc(OCCCNCC(C)(C)C(N)=O)ccc1Cc1c(O[C@@H]2O[C@H](CO)[C@@H](O)[C@H](O)[C@H]2O)n[nH]c1C(C)C` [mizagliflozin, 3-(3-{4-[3-(β-D-glucopyranosyloxy)-5-isopropyl-1H-pyrazol-4-ylmethyl-]-3-methylphenoxy}propylamino)-2,2-dimethylpropionamide], the “mode of inhibition of SGLT1 (Dixon plot intersection pattern)” value (human SGLT1; human SGLT1) was “competitive with substrate”, the Ki (human SGLT1; α-MG 0.3 and 1 mM, COS-7 cells, read-out: inhibition constant for human SGLT1) was 0.027 µM and the Ki (human SGLT2) was 8.17 µM. The ED50 [1, 4] was 0.13 mg/kg, the “ΔAUC0-1 h of plasma glucose versus vehicle control” value ([1]; mixed carbohydrate 2.0 g/kg) was “significantly lowered” and the ED50 [2, 4] was 0.096 mg/kg. The “ΔAUC0-1 h of plasma glucose versus vehicle control” value ([2]; mixed carbohydrate 2.0 g/kg) was “significantly lowered”, the bioavailability ([3]; male, rat, plasma, po) was 0.01 to 0.08% and the “Cmax and AUCt versus dose” value ([3]; oral 3, 10 and 30 mg/kg, fasted male rats) was “increased with dose, but not in a clear dose proportional manner”. The “excreted in the feces” value ([3]; rats, oral dosing) was > 97 % of orally administered dose.
